Earlier results on 1 compound are cited in patent US20140051733A1, “FEBUXOSTAT PHARMACEUTICAL COMPOSITIONS” (Dr. Reddy's Laboratories Ltd., priority 2012, published 2014).

Read-outs that look alike come from different tables or passages of the source.

For data set [1] the following is noted: Class 2 = low solubility, high permeability.

`Cc1nc(-c2ccc(OCC(C)C)c(C#N)c2)sc1C(=O)O` [Febuxostat, 2-[3-cyano-4-(2-methylpropoxy)phenyl]-4-methylthiazole-5-carboxylic acid]: the solubility result is, setting by setting: (in acetonitrile) “slightly soluble”; (in dimethylformamide) “freely soluble”; (in dimethylsulfoxide) “soluble”; (in ethanol) “sparingly soluble”; (in methanol) “slightly soluble”; (in water) “practically insoluble”. In data set [1], the “Biopharmaceutics Classification System class” value is on record as “Class 2”.
